From the supplement of paper PMC10307832

Experiments:
XMD13-2 = compound: C1CC1C(=O)NC2=NNC3=C2C=CC(=C3)C4=CC(=CC=C4)C(=O)NC5CC5 [XMD13-2]; test: relative viability (nuclei count vs DMSO), 5 days (fraction); higher = more cells survive
How it was run: (§1)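 On vehicle-anchored 1536-well plates, lung cancer cell lines held overnight at 37 °C were pinned with five library-drug doses (not always all listed) spaced by √10. With no medium change over 5 days, they were then fixed, permeabilised and Hoechst-stained in one step and imaged at 4×. MetaXpress counted nuclei, and viability is the median across plates of treated-well over vehicle-well nuclei. Acceptance needed control CV below 25% and at least one doubling.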

Dasatinib = compound: Cc1nc(Nc2ncc(C(=O)Nc3c(C)cccc3Cl)s2)cc(N2CCN(CCO)CC2)n1 [Dasatinib]; test: as above
How it was run: as §1

| Cell Line | relative viability (XMD13-2; 0.05 µM) | relative viability (XMD13-2; 0.1581 µM) | relative viability (XMD13-2; 0.5 µM) | relative viability (XMD13-2; 1.581 µM) | relative viability (XMD13-2; 5 µM) | relative viability (Dasatinib; 0.005 µM) | relative viability (Dasatinib; 0.01581 µM) | relative viability (Dasatinib; 0.05 µM) | relative viability (Dasatinib; 0.075 µM, anchor plate) | relative viability (Dasatinib; 0.1581 µM) | relative viability (Dasatinib; 0.5 µM) |
| --- | --- | --- | --- | --- | --- | --- | --- | --- | --- | --- | --- |
| NCI-H1437 | 0.984 | 0.992 | 1.02 | 0.941 | 1.06 | 1.05 | 1.05 | 1.04 | 0.443 | 0.887 | 0.348 |
| NCI-H1563 | 1.07 | 1.03 | 1.09 | 0.966 | 1.06 | 0.901 | 0.703 | 0.735 | 0.465 | 0.619 | 0.584 |
| NCI-H1623 | 0.948 | 1.03 | 0.879 | 0.89 | 0.965 | 0.97 | 0.851 | 0.935 | 0.542 | 0.767 | 0.564 |
| NCI-H1648 | 1.14 | 0.764 | 0.84 | 0.94 | 0.814 | 1.26 | 0.938 | 1.03 |  | 0.405 | 0.192 |
| NCI-H1650 | 1.08 | 0.936 | 1.17 | 0.951 | 0.907 | 0.868 | 0.769 | 0.6 | 0.336 | 0.388 | 0.338 |
| NCI-H1651 | 1.06 | 0.95 | 1.03 | 1.02 | 1.04 | 1.01 | 0.902 | 0.91 | 0.391 | 0.817 | 0.758 |
| NCI-H1666 | 1.05 | 1.05 | 0.997 | 0.994 | 0.964 | 0.995 | 1 | 1.02 | 0.851 | 0.829 | 0.478 |
| NCI-H1703 | 1.29 | 1.33 | 1.05 | 0.764 | 1.06 | 0.482 | 0.457 | 0.311 |  | 0.177 | 0.148 |
| NCI-H1734 | 1.1 | 0.848 | 1.03 | 0.869 | 0.748 | 0.863 | 0.772 | 0.777 | 0.481 | 0.508 | 0.51 |
| NCI-H1755 | 1.07 | 0.997 | 0.994 | 0.985 | 1.04 | 0.964 | 0.868 | 0.747 | 0.44 | 0.544 | 0.363 |
| NCI-H1792 | 1.09 | 0.907 | 0.925 | 0.808 | 1.12 | 0.844 | 0.773 | 0.643 | 0.827 | 0.653 | 0.277 |
| NCI-H1793 | 1.27 | 0.721 | 1.07 | 0.977 | 1.12 | 0.635 | 0.543 | 0.537 | 0.391 | 0.457 | 0.414 |
| NCI-H1915 | 1.02 | 0.958 | 1.08 | 0.985 | 1 | 0.966 | 0.987 | 0.903 | 0.315 | 0.492 | 0.256 |
| NCI-H1944 | 1.11 | 0.958 | 1.06 | 1.18 | 0.977 | 0.918 | 0.902 | 0.644 | 0.228 | 0.286 | 0.208 |
| NCI-H1975 | 1.23 | 1.01 | 0.98 | 1.1 | 0.961 | 0.83 | 0.768 | 0.78 | 0.378 | 0.545 | 0.282 |
| NCI-H1993 | 1.07 | 0.895 | 0.885 | 0.822 | 0.925 | 0.793 | 0.653 | 0.856 | 0.625 | 0.736 | 0.507 |
